Test results: ChEMBL document CHEMBL4622932, “Design, synthesis and biological evaluation of new Myo-inositol derivatives as potential RAS inhibitors” (Bioorg Med Chem Lett, 2020)

What was measured:
MCF7 [1] = assay: Induction of apoptosis in human MCF7 cells assessed as necrotic cells at 25 uM measured after 48 hrs by annexinV-FITC/propidium iodide staining based flow cytometry (reference value: 0.08 %); assay type: functional
MDA-MB-231 [2] = assay: Cell cycle arrest in human MDA-MB-231 cells assessed as accumulation at S phase at 25 uM measured after 48 hrs by propidium iodide/RNase staining based flow cytometry (reference value: 22.09 %); assay type: functional
[3] = target: GTPase KRas (Homo sapiens) (UniProt P01116); assay: Inhibition of KRAS in human MDA-MB-231 cells assessed as reduction in phosphorylation of MEK measured after 24 hrs by Western blot analysis; assay type: cell-based
MDA-MB-231 [4] = assay: Induction of apoptosis in human MDA-MB-231 cells assessed as necrotic cells at 25 uM measured after 48 hrs by annexinV-FITC/propidium iodide staining based flow cytometry (reference value: 0.31 %); assay type: functional
[5] = target: GTPase KRas (Homo sapiens) (UniProt P01116); assay: Inhibition of KRAS in human MDA-MB-231 cells assessed as reduction in phosphorylation of RAF measured after 24 hrs by Western blot analysis; assay type: cell-based
[6] = target: GTPase KRas (Homo sapiens) (UniProt P01116); assay: Inhibition of KRAS in human MDA-MB-231 cells assessed as reduction in MEK1/2 9G3 protein level at 15 uM measured after 24 hrs by Western blot analysis relative to control; assay type: cell-based
[7] = target: GTPase KRas (Homo sapiens) (UniProt P01116); assay: Inhibition of KRAS in human MCF7 cells assessed as reduction in phosphorylated MEK1/2 at Ser217/221 residues protein level at 15 uM measured after 24 hrs by Western blot analysis relative to control; assay type: cell-based
MDA-MB-231 [8] = assay: Cell cycle arrest in human MDA-MB-231 cells assessed as accumulation at S phase at 15 uM measured after 48 hrs by propidium iodide/RNase staining based flow cytometry (reference value: 22.09 %); assay type: functional
[9] = target: GTPase KRas (Homo sapiens) (UniProt P01116); assay: Inhibition of KRAS in human MCF7 cells assessed as reduction in ERK1/2 137F5 protein level at 35 uM measured after 24 hrs by Western blot analysis relative to control; assay type: cell-based
MDA-MB-231 [10] = assay: Cell cycle arrest in human MDA-MB-231 cells assessed as accumulation at G2 phase at 15 uM measured after 48 hrs by propidium iodide/RNase staining based flow cytometry (reference value: 3.35 %); assay type: functional
[11] = target: GTPase KRas (Homo sapiens) (UniProt P01116); assay: Inhibition of KRAS in human MCF7 cells assessed as reduction in MEK1/2 9G3 protein level at 15 uM measured after 24 hrs by Western blot analysis relative to control; assay type: cell-based
[12] = target: GTPase KRas (Homo sapiens) (UniProt P01116); assay: Inhibition of KRAS in human MDA-MB-231 cells assessed as reduction in phosphorylated RAF-1 E1 protein level at 25 uM measured after 24 hrs by Western blot analysis relative to control; assay type: cell-based
[13] = target: GTPase KRas (Homo sapiens) (UniProt P01116); assay: Inhibition of KRAS in human MDA-MB-231 cells assessed as reduction in ERK1/2 137F5 protein level at 25 uM measured after 24 hrs by Western blot analysis relative to control; assay type: cell-based
[14] = target: GTPase KRas (Homo sapiens) (UniProt P01116); assay: Inhibition of KRAS in human MCF7 cells assessed as reduction in phosphorylated ERK1/2 at Thr185/Tyr187 residues protein level at 25 uM measured after 24 hrs by Western blot analysis relative to control; assay type: cell-based
[15] = target: GTPase KRas (Homo sapiens) (UniProt P01116); assay: Inhibition of KRAS in human MCF7 cells assessed as reduction in phosphorylated RAF-1 E1 protein level at 25 uM measured after 24 hrs by Western blot analysis relative to control; assay type: cell-based
[16] = target: GTPase KRas (Homo sapiens) (UniProt P01116); assay: Inhibition of KRAS in human MCF7 cells assessed as reduction in ERK1/2 137F5 protein level at 25 uM measured after 24 hrs by Western blot analysis relative to control; assay type: cell-based
[17] = target: GTPase KRas (Homo sapiens) (UniProt P01116); assay: Inhibition of KRAS in human MCF7 cells assessed as reduction in MEK1/2 9G3 protein level at 35 uM measured after 24 hrs by Western blot analysis relative to control; assay type: cell-based
MCF7 [18] = assay: Induction of apoptosis in human MCF7 cells assessed as late apoptotic cells at 15 uM measured after 48 hrs by annexinV-FITC/propidium iodide staining based flow cytometry (reference value: 0.17 %); assay type: functional
[19] = target: GTPase KRas (Homo sapiens) (UniProt P01116); assay: Inhibition of KRAS in human MDA-MB-231 cells assessed as reduction in MEK1/2 9G3 protein level at 35 uM measured after 24 hrs by Western blot analysis relative to control; assay type: cell-based
[20] = target: GTPase KRas (Homo sapiens) (UniProt P01116); assay: Inhibition of KRAS in human MCF7 cells assessed as reduction in phosphorylated MEK1/2 at Ser217/221 residues protein level at 25 uM measured after 24 hrs by Western blot analysis relative to control; assay type: cell-based
MCF7 [21] = assay: Induction of apoptosis in human MCF7 cells assessed as live cells at 15 uM measured after 48 hrs by annexinV-FITC/propidium iodide staining based flow cytometry (reference value: 99.71 %); assay type: functional
[22] = target: GTPase KRas (Homo sapiens) (UniProt P01116); assay: Inhibition of KRAS in human MDA-MB-231 cells assessed as reduction in phosphorylated MEK1/2 at Ser217/221 residues protein level at 25 uM measured after 24 hrs by Western blot analysis relative to control; assay type: cell-based
MDA-MB-231 [23] = assay: Induction of apoptosis in human MDA-MB-231 cells assessed as late apoptotic cells at 15 uM measured after 48 hrs by annexinV-FITC/propidium iodide staining based flow cytometry (reference value: 0 %); assay type: functional
[24] = target: GTPase KRas (Homo sapiens) (UniProt P01116); assay: Inhibition of KRAS in human MDA-MB-231 cells assessed as reduction in phosphorylated RAF-1 E1 protein level at 15 uM measured after 24 hrs by Western blot analysis relative to control; assay type: cell-based
[25] = target: GTPase KRas (Homo sapiens) (UniProt P01116); assay: Inhibition of KRAS in human MCF7 cells assessed as reduction in phosphorylated ERK1/2 at Thr185/Tyr187 residues protein level at 35 uM measured after 24 hrs by Western blot analysis relative to control; assay type: cell-based
[26] = target: GTPase KRas (Homo sapiens) (UniProt P01116); assay: Inhibition of KRAS in human MCF7 cells assessed as reduction in Pan RAS protein level at 35 uM measured after 24 hrs by Western blot analysis relative to control; assay type: cell-based
MDA-MB-231 [27] = assay: Induction of necrosis in human MDA-MB-231 cells; assay type: functional, cell-based
[28] = target: GTPase KRas (Homo sapiens) (UniProt P01116); assay: Inhibition of KRAS in human MDA-MB-231 cells assessed as reduction in Pan RAS protein level at 25 uM measured after 24 hrs by Western blot analysis relative to control; assay type: cell-based
[29] = target: GTPase KRas (Homo sapiens) (UniProt P01116); assay: Inhibition of KRAS in human MCF7 cells assessed as reduction in phosphorylated RAF-1 E1 protein level at 15 uM measured after 24 hrs by Western blot analysis relative to control; assay type: cell-based
MCF7 [30] = assay: Antiproliferative activity against human MCF7 cells reduction in cell viability measured after 48 hrs by MTT assay; assay type: functional, cell-based
MCF7 [31] = assay: Induction of apoptosis in human MCF7 cells assessed as late apoptotic cells at 25 uM measured after 48 hrs by annexinV-FITC/propidium iodide staining based flow cytometry (reference value: 0.17 %); assay type: functional
[32] = target: GTPase KRas (Homo sapiens) (UniProt P01116); assay: Inhibition of KRAS in human MDA-MB-231 cells assessed as reduction in ERK1/2 137F5 protein level at 15 uM measured after 24 hrs by Western blot analysis relative to control; assay type: cell-based

O=P(Oc1ccccc1)(Oc1ccccc1)OC1C2OC3(c4ccccc4)OC(C2O)C(O)C1O3 (stereo not drawn)
Activity (MCF7 [1]): 61.44% | Activity (MDA-MB-231 [2]): 40.07% | inhibition [3]: Dose-dependent effect | Activity (MDA-MB-231 [4]): 16.64% | inhibition [5]: Dose-dependent effect | fold change (FC) [6]: 0.91 | fold change (FC) [7]: 0.91 | Activity (MDA-MB-231 [8]): 44.74% | fold change (FC) [9]: 1.11 | Activity (MDA-MB-231 [10]): 21.02% | fold change (FC) [11]: 0.97 | fold change (FC) [12]: 0.14 | fold change (FC) [13]: 0.91 | fold change (FC) [14]: 0.91 | fold change (FC) [15]: 0.99 | fold change (FC) [16]: 1.14 | fold change (FC) [17]: 0.87 | Activity (MCF7 [18]): 0.28% | fold change (FC) [19]: 0.46 | fold change (FC) [20]: 1.12 | Activity (MCF7 [21]): 32.46% | fold change (FC) [22]: 0.97 | Activity (MDA-MB-231 [23]): 0.39% | fold change (FC) [24]: 0.85 | fold change (FC) [25]: 0.35 | fold change (FC) [26]: 1.11 | Activity (MDA-MB-231 [27]): Dose-dependent effect | fold change (FC) [28]: 1.18 | fold change (FC) [29]: 1.06 | Activity (MCF7 [30]): Dose-dependent effect | IC50 (MCF7 [30]; MCF7, 48 h): 35.1 µM | Activity (MCF7 [31]): 0.49% | fold change (FC) [32]: 0.99
